Results from patent publication US10251865B2, “Method of activating regulatory T cells with alpha-2B adrenergic receptor agonists” (Allergan, Inc., priority 2010, dated 2019).

Columns and labels:
[1] = tested on: PLP-induced model of relapsing remitting EAE; test: Proteolipid-induced relapsing-remitting EAE in mice: clinical score and pain; format: in vivo
Text: (§1) The mouse model of experimental autoimmune encephalomyelitis (EAE) has been used extensively to understand the mechanisms underlying the immunopathogenesis of MS. […] Components of the immune system including T cells, macrophage, and antibodies are important contributors to myelin destruction in EAE mice. Further, inflammation also gives rise to multifocal regions demyelination culminating in clinical signs of neurologic dysfunction that include loss of tail tone, abnormal gait and partial-to-complete hind-limb paralysis. PLP-induced EAE model offers the ability to simultaneously investigate the pathogenic mechanisms of CNS inflammation and demyelination and MS-associated pain, a multi-targeted concept that we have optimized here at Allergan. Using sterile technique proteolipid protein myelin peptide (PLP) (139-159: […]) is mixed 1:1 with incomplete Freund's adjuvant (IFA) (Final concentration of 2 mg/ml PLP). 8-10 week old Female SJL mice (Taconic) are injected subcutaneously with 100 μl PLP/IFA (200 μg PLP/injection) on both the right and left hind-flank (day 0) using a 26G needle. Mice immunized using this protocol experience a relapsing-remitting clinical course with episodes of motor impairment interspersed with periods of remission/clinical improvement. Furthermore, these mice display a robust pain phenotype that is most pronounced during periods of clinical remission.
Using this protocol, the onset of PLP-induced EAE in SJL mice occurs at an incidence of (˜90-100%) and is generally apparent by ˜12 days post-immunization, reaching peak disease by 14-21 days. PLP-EAE mice show physical symptoms of neurologic impairment, progressing from partial loss of tail tonicity to partial-to-complete hind-limb paralysis. Up to 75% of the mice will experience a relapsing-remitting clinical course with periods of remission flanked by episodes of motor impairment (hind-limb weakness and paralysis). Histologically, mice display extensive inflammation within white matter tracts (areas containing myelinated axons) of the brain and spinal cord, progressive infiltration and accumulation of inflammatory cells, demyelination and axonal loss. Mice with severe EAE show extensive cellular infiltrates, widespread foci of demyelination. PLP-immunized mice typically display the most severe clinical disease during the first episode of neurologic impairment (days 14-21). […]
(§2) Mice were routinely visually scored for behavioral abnormalities on a scale from 0-5; 0-no abnormality, 1-partial loss of tail tonicity (partial limp tail), 2-loss of tail tonicity and hind-limb weakness 3-unsteady gait and partial hind-limb paralysis, 4-complete hind-limb paralysis and 5-moribund or dead. […] Allodynia was measured by the Von Frey hairs method as described earlier. […]

[2] = tested on: regulatory T cells and immune cells in the CNS; test: Flow cytometry of immune cells and Treg cells in PLP-induced EAE mice; format: in vivo
Text: as §1, with “Mice immunized using this protocol experience a relapsing-remitting clinical course with episodes of motor impairment interspersed with periods of remission/clinical improvement. Furthermore, these mice display a robust pain phenotype that is most pronounced during periods of clinical remission.” left out
as §2
To determine surface expression of CD4 (Helper T cells), CD8 (killer T cells), CD25 (activated helper T cells and regulatory T cells), CD45 (macrophage and microglial cells) and F4/80 (macrophage and microglial cells) 5×10^5 cells/100 μL FACS buffer (PBS, 0.02% sodium azide [Sigma-Aldrich] and 2% bovine serum albumin) were incubated with appropriate antibodies from BD biosciences, Mountain View, Calif. […] Expression was analyzed (FACSCalibur with CellQuest software; BD Biosciences, Mountain View, Calif.).

[3] = mice immunized with proteolipid protein, 3 mg/kg/day by osmotic minipump, FIG. 3

SMILES	pain [1, 3]	symptoms of MS (clinical course of disease) ([1]; treatment during the development of clinical disease, FIG. 4)	clinical score during relapses on days 14 (p<0.01) and 24 ([1]; treatment from days 7-10)	presence of immune cells in the CNS ([2]; flow cytometry at the end of the study, FIG. 5)	Treg number [2, 3]	clinical score compared to vehicle-treated mice from days 13-24 ([1]; TID oral dosing (3 mg/kg/day) from day 7-13, FIG. 6)	frequency of regulatory T cells (CD4+CD25hiFoxP3+) in the spinal cord ([2]; flow cytometry on day 37, FIG. 7)
CCC1=CC(Cc2c[nH]cn2)CCC1 (stereo not shown) [Compound B]	reduced	significant effect on attenuating symptoms	reduced	significantly reduced	selectively boosted	–	–
Clc1cccc(CNC2=NCCN2)c1Cl [Compound C]	–	–	–	–	–	significantly reduced	increased
